Assay results reported in patent US20130190309A1, “PHTHALAZINONE AND RELATED ANALOGS AS SIRTUIN MODULATORS” (priority 2009, published 2013).

Molecular target: T1, SIRT1 (Homo sapiens, UniProt Q96EB6)
T1 sequence (Q96EB6 1-747): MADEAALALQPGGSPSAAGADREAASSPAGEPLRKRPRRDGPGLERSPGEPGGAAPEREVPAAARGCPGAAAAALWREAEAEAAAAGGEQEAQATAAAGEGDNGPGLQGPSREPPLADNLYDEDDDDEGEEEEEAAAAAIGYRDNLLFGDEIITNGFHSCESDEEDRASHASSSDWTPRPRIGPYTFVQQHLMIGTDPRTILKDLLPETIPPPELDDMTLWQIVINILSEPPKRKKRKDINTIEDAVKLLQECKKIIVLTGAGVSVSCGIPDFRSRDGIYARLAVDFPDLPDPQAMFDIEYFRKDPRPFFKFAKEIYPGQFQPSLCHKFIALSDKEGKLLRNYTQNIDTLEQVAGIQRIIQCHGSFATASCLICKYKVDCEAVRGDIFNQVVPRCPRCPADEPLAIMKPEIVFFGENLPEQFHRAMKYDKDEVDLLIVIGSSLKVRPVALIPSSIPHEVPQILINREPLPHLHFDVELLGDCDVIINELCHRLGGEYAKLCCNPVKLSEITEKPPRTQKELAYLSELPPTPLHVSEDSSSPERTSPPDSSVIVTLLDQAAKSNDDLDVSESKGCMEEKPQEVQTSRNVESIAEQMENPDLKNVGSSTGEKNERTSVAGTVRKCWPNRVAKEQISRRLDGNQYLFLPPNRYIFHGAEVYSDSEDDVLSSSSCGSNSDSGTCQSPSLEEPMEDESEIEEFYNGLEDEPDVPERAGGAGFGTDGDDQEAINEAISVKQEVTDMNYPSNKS
Assay: Mass spectrometry based SIRT1 deacetylase activation assay
Format: biochemical
Conditions: for Emax: 25 min, percent maximum fold activation of SIRT1, read-out: SIRT1 % FOLD ACT.; for EC1.5 (concentration giving 150% activation): concentration of test compound that results in 150% activation of SIRT1
Text: A mass spectrometry based assay was used to identify modulators of SIRT1 activity. The mass spectrometry based assay utilizes a peptide having 20 amino acid residues as follows: Ac-EE-K(biotin)-GQSTSSHSK(Ac)NleSTEG-K(5TMR)-EE-NH2 (SEQ ID NO: 1) wherein K(Ac) is an acetylated lysine residue and Nle is a norleucine. The peptide is labeled with the fluorophore 5TMR (excitation 540 nm/emission 580 nm) at the C-terminus. The sequence of the peptide substrate is based on p53 with several modifications. In addition, the methionine residue naturally present in the sequence was replaced with the norleucine because the methionine may be susceptible to oxidation during synthesis and purification.
The mass spectrometry assay is conducted as follows: 0.5 μM peptide substrate and 120 μM βNAD^+ is incubated with 10 nM SIRT1 for 25 minutes at 25° C. in a reaction buffer (50 mM Tris-acetate pH 8, 137 mM NaCl, 2.7 mM KCl, 1 mM MgCl2, 5 mM DTT, 0.05% BSA). Test compounds may be added to the reaction as described above. The SirT1 gene is cloned into a T7-promoter containing vector and transformed into BL21(DE3). After the 25 minute incubation with SIRT1, 10 μL of 10% formic acid is added to stop the reaction. Reactions are sealed and frozen for later mass spec analysis. Determination of the mass of the substrate peptide allows for precise determination of the degree of acetylation (i.e. starting material) as compared to deacetylated peptide (product).
A control for inhibition of sirtuin activity is conducted by adding 1 μL of 500 mM nicotinamide as a negative control at the start of the reaction (e.g., permits determination of maximum sirtuin inhibition). A control for activation of sirtuin activity is conducted using 10 nM of sirtuin protein, with 1 μL of DMSO in place of compound, to determine the amount of deacetylation of the substrate at a given timepoint within the linear range of the assay. This timepoint is the same as that used for test compounds and, within the linear range, the endpoint represents a change in velocity.
For the above assay, SIRT1 protein was expressed and purified as follows. The SirT1 gene was cloned into a T7-promoter containing vector and transformed into BL21(DE3). The protein was expressed by induction with 1 mM IPTG as an N-terminal His-tag fusion protein at 18° C. overnight and harvested at 30,000×g. Cells were lysed with lysozyme in lysis buffer (50 mM Tris-HCl, 2 mM Tris[2-carboxyethyl]phosphine (TCEP), 10 μM ZnCl2, 200 mM NaCl) and further treated with sonication for 10 min for complete lysis. The protein was purified over a Ni-NTA column (Amersham) and fractions containing pure protein were pooled, concentrated and run over a sizing column (Sephadex S200 26/60 global). The peak containing soluble protein was collected and run on an Ion-exchange column (MonoQ). Gradient elution (200 mM-500 mM NaCl) yielded pure protein. This protein was concentrated and dialyzed against dialysis buffer (20 mM Tris-HCl, 2 mM TCEP) overnight. The protein was aliquoted and frozen at −80° C. until further use.
Sirtuin modulating compounds that activated SIRT1 were identified using the assay described above and are shown below in Table 1. The EC1.5 values represent the concentration of test compounds that result in 150% activation of SIRT1. The EC1.5 values for the activating compounds are represented by A (EC1.5 <5 μM), B (EC1.5 5-50 μM), or C (EC1.5 >50 μM). The percent maximum fold activation is represented by A (Fold activation >150%) or B (Fold Activation <150%).

SMILES | Emax | EC1.5 (concentration giving 150% activation)
O=C(Nc1cccc2c1C(=O)N(c1cccc(C(F)(F)F)c1)CC2)c1cscn1 [Compound 100] | > 150% | 5 to 50 µM
O=C(Nc1cccc2cnn(-c3cccc(C(F)(F)F)c3)c(=O)c12)C1CCOCC1 [Compound 104] | – | > 50 µM
O=C(Nc1cccc2cnn(-c3cccc(C(F)(F)F)c3)c(=O)c12)c1cccc(CN2CCOCC2)n1 [Compound 106, 6-(morpholinomethyl)-N-(4-oxo-3-(3-(trifluoromethyl)phenyl)-3,4-dihydrophthalazin-5-yl)picolinamide] | > 150% | < 5 µM
O=C(Nc1cccc2cnn(-c3cccc(OC(F)(F)F)c3)c(=O)c12)c1cccc(OCC(O)CO)n1 (centres unmarked) [Compound 107, 6-(2,3-dihydroxypropoxy)-N-(4-oxo-3-(3-(trifluoromethoxy)phenyl)-3,4-dihydrophthalazin-5-yl)picolinamide] | > 150% | < 5 µM
O=C(Nc1cccc2cnn(-c3cccc(OC(F)(F)F)c3)c(=O)c12)c1cccc(CN2CCOCC2)n1 [Compound 108, 6-(morpholinomethyl)-N-(4-oxo-3-(3-(trifluoromethoxy)phenyl)-3,4-dihydrophthalazin-5-yl)picolinamide] | > 150% | < 5 µM

More lines, now with the values ahead:

Emax | EC1.5 (concentration giving 150% activation) | SMILES
> 150% | 5 to 50 µM | O=C(Nc1cccc2c1C(=O)N(c1cccc(C(F)(F)F)c1)CC2)c1cnccn1 [Compound 101, N-(1-oxo-2-(3-(trifluoromethyl)phenyl)-1,2,3,4-tetrahydroisoquinolin-8-yl)pyrazine-2-carboxamide]
< 150% | < 5 µM | O=C(Nc1cccc2cnn(-c3cccc(C(F)(F)F)c3)c(=O)c12)c1cscn1 [Compound 102]
> 150% | 5 to 50 µM | O=C(Nc1cccc2cnn(-c3cccc(C(F)(F)F)c3)c(=O)c12)c1cnccn1 [Compound 103, N-(4-oxo-3-(3-(trifluoromethyl)phenyl)-3,4-dihydrophthalazin-5-yl)pyrazine-2-carboxamide]
> 150% | < 5 µM | O=C(Nc1cccc2cnn(-c3cccc(C(F)(F)F)c3)c(=O)c12)c1cccc(OCC(O)CO)n1 (centres unmarked) [Compound 105, 6-(2,3-dihydroxypropoxy)-N-(4-oxo-3-(3-(trifluoromethyl)phenyl)-3,4-dihydrophthalazin-5-yl)picolinamide]
